This is an account of results in article PMC6891813, “Piltunines A–F from the Marine-Derived Fungus Penicillium piltunense KMM 4668” (Marine Drugs, 2019).

For orientation: viability means the share of living cells, or the viability signal relative to a control. A word on the IC50: it is the concentration needed to halve the response being measured. Read a low IC50 as inhibition by little substance.

In data set [1] the test system is human drug-resistant prostate cancer 22Rv1 cell. Kind of data set: MTT cytotoxicity assay, 22Rv1 cells. The format is cell-based. The conditions noted are these: for viability at 100 µM / IC50: Homo sapiens, 22Rv1; for viability at 100 µM: read-out: Viability at 100 µM, % of Control, 22Rv1 Cells; for IC50: 72 h treatment; for SI (selectivity index): [viability of PNT-2 cells]/[viability of 22Rv1 cells] at 100 µM. From the text:
(§1) We have investigated the effect of the isolated compounds 1, 1a, 2, 7–9 on the viability of human drug-resistant prostate cancer 22Rv1 cell as well as on human prostate non-cancer PNT-2 cells using an MTT assay (Table 3). We have also determined a selectivity index (SI) at for all the tested substances (Table 3). […] Note, 22Rv1 cells are known to be resistant to the hormone therapy due to the expression of androgen receptor splice variant AR-V7 [15]. Thus, the compounds which are active inAR-V7-positive 22Rv1 cells are of high clinical interest.
(§2) The human prostate cancer cells 22Rv1 and human prostate non-cancer cells PNT-2 were purchased from ATCC. Cell lines were cultured according to the manufacturers instructions in 10% FBS/RPMI media (Invitrogen). Cells were continuously kept in culture for a maximum of 3 months, and were routinely inspected microscopically for stable phenotype and regularly checked for contamination with mycoplasma. The authentity of the cells has recently been confirmed by the Multiplexion (Heidelberg, Germany) using highly polymorphic short tandem repeat loci.
(§3) The in vitro cytotoxicity of individual substances was evaluated using the MTT (3-(4,5-dimethylthiazol-2-yl)-2,5-diphenyltetrazolium bromide) assay, which was performed as previously described. The vehicle (DMSO) treated cells were used as a negative control. Treatment time was 72 h.

Data set [2] in a line: MTT cytotoxicity assay, PNT-2 cells. The conditions noted are these: human, PNT-2 prostate non-cancer cells, 100 µM, 72 h, read-out: Viability at 100 µM, % of Control, PNT-2 Cells. The format is cell-based, human.
Description: as §1, §2, §3
A general note: Tetrazolium dyes change colour on reduction, which living cells bring about.

Data set [3] has as its system human prostate non-cancer PNT-2 cells. In words: MTT cytotoxicity assay, PNT-2 cells. The format is cell-based. The note with it: Homo sapiens, PNT2, 72 h treatment.
Description: as §1, §2, §3

The test system of data set [4] is murine peritoneal macrophages co-incubated with lipopolysaccharide (LPS). In words: ROS level analysis in LPS-treated macrophages (DCF-DA fluorescence). The format is cell-based, Mice BALB/c. The conditions noted are these: 10 μM, 1 h at 37 °C, LPS co-incubation; p < 0.05. As for the experimental part: Figure 5 Effect of compounds on reactive oxygen species (ROS) level in murine peritoneal macrophages co-incubated with lipopolysaccharide (LPS). The compounds were tested at a concentration of 10 μM. Time of cell incubation with compounds was 1 h at 37 °C. * p < 0.05. (Student’s t-test).
The suspension of macrophages on 96-well plates (2 × 10^4 cells/well) were washed withphosphate-buffered saline (PBS) and treated with 180 µL/well of the tested compounds (10 μM) for 1 h and 20 µL/well LPS from E. coli serotype 055:В5 (Sigma-Aldrich, MA, USA, 1.0 μg/mL), which were both dissolved in PBS and cultured at 37 °C in a CO2-incubator for one hour. For the ROS levels measurement, 200 μL of 2,7-dichlorodihydrofluorescein diacetate (DCF-DA, Sigma, final concentration 10 μM) fresh solution was added to each well, and the plates were incubated for 30 min at 37 °C. The intensity of DCF-DA fluorescence was measured at λex 485 n/λem 518 nm using the plate reader PHERAstar FS (BMG Labtech, Offenburg, Germany).
Mice BALB/c were sacrificed by cervical dislocation. Peritoneal macrophages were isolated using standard procedures. For this purpose, 3 ml of PBS (pH 7.4) was injected into the peritoneal cavity and the body intensively palpated for 1–2 min. Then the peritoneal fluid was aspirated with a syringe. […]

The test system of data set [5] is LPS-stimulated macrophages. In words: NO (RNS) level analysis in LPS-treated macrophages (DAF FM-DA fluorescence). The format is cell-based, Mice BALB/c. The conditions noted are these: 1 μM (non-toxic concentration); p < 0.05. As for the experimental part:
Compound 9 suppressed NO production in LPS-stimulated macrophages at non-toxic concentration of 1 μM. NO level in these cells was decreased by 24.1 ± 0.7% (p < 0.05, Student’s t-test) in comparison with LPS-treated control (data not shown). Therefore, compound 9 may be a promising candidate for the therapy of inflammatory diseases accompanying overproduction of NO.
The suspension of macrophages on 96-well plates (2 × 10^4 cells/well) were washed with the PBS and treated with 180 µL/well of the tested compounds (10 μM) for 1 h and 20 µL/well LPS from E. coli serotype 055:В5 (Sigma, 1.0 μg/mL), which were both dissolved in PBS and cultured at 37 °C in a CO2-incubator for one hour. For the RNS levels measurement, 200 μL Diaminofluorescein-FM diacetate (DAF FM-DA, Sigma, final concentration 10 μM) fresh solution was added to each well, and the plates were incubated for 40 min at 37 °C, then replace with fresh PBS, and then incubated for an additional 30 min to allow complete de-esterification of the intracellular diacetates. The intensity of DAF FM-DA fluorescence was measured at λex 485 n/λem 520 nm using the plate reader PHERAstar FS (BMG Labtech, Offenburg, Germany).
Mice BALB/c were sacrificed by cervical dislocation. Peritoneal macrophages were isolated using standard procedures. […]

For the compound `CC(CO)=C1CCC23COC(C2)C(O)(C(=O)O)CCC13` (centres unmarked) [Compound 1, Piltunine A], the viability at 100 µM in data set [1] (72 h, MTT assay) is 65.5%. Moreover, the IC50 in data set [1] (MTT assay) and in data set [3] was greater than 100 µM each time. In addition, the “SI (selectivity index)” value in data set [1] (72 h) is on record as 1.48. The viability at 72 h, 100 µM in data set [2] turned out to be 97.2%.
Turning to `COC(=O)C1(O)CCC2C(=C(C)CO)CCC23COC1C3` (centres unmarked) [Compound 1a], the viability at 100 µM in data set [1] (72 h, MTT assay) came to 62.2%. For the same compound, the IC50 in data set [1] (MTT assay) and in data set [3] was greater than 100 µM in each case. The “SI (selectivity index)” value in data set [1] (72 h) is given as 1.29. The viability at 72 h, 100 µM in data set [2] worked out at 80.4%.
For `CC(=O)OC/C(C)=C1\CC[C@]23CO[C@H](C2)[C@@](O)(C(=O)O)CC[C@@H]13` [Compound 2, Piltunine B], the viability at 100 µM in data set [1] (72 h, MTT assay) amounted to 61.9%. For the same compound, the IC50 in data set [1] (MTT assay) and in data set [3] was greater than 100 µM each time. Besides, the “SI (selectivity index)” value in data set [1] (72 h) is given as 1.34. Moreover, the viability at 72 h, 100 µM in data set [2] stood at 82.9%.
For the compound `CC(=O)C1=CC[C@]23CO[C@H](C2)[C@@](O)(C(=O)O)CC[C@@H]13` [Compound 5, Piltunine E], the “Effect on ROS production” value in data set [4] was “significant down-regulation of ROS production”.
Turning to `C=C(C)C1(O)CCC23COC(C2)C(O)(C(=O)O)CCC31` (centres unmarked) [Compound 7, penigrisacid D], the viability at 100 µM in data set [1] (72 h, MTT assay) was 63.8%. For the same compound, the IC50 in data set [1] (MTT assay) and in data set [3] was greater than 100 µM in each case. For the same compound, the “SI (selectivity index)” value in data set [1] (72 h) is listed as 1.26. In addition, in data set [2], the viability at 72 h, 100 µM amounted to 80.7%.
As to `C[C@H]1CCC[C@H](C[C@H]2Cc3cc(O)cc(O)c3C(=O)O2)O1` [Compound 8, cladosporin], in data set [1] (72 h, MTT assay), the viability at 100 µM was determined as 38.7%. Moreover, the IC50 is 71.7 ± 8.9 µM in data set [1] (MTT assay) and greater than 100 µM in data set [3]. Moreover, the “Cytotoxicity in cancer cells in comparison with the other substances” value in data set [1] (MTT assay, 72 h) is “most cytotoxic in cancer cells”. Also, the viability at 72 h, 100 µM in data set [2] amounted to 88.1%.
For the compound `CC1OC(CC2Cc3cc(O)cc(O)c3C(=O)O2)CCC1O` (centres unmarked) [Compound 9, 5’-hydroxyasperentin], in data set [1] (72 h, MTT assay), the viability at 100 µM came out at 54.9%. The 50% inhibitory concentration (IC50) in data set [1] (MTT assay) and in data set [3] was greater than 100 µM in each case. For the same compound, the “SI (selectivity index)” value in data set [1] (72 h) turned out to be 1.01. Besides, the viability at 72 h, 100 µM in data set [2] was found to be 55.5%. Besides, in data set [4], the “Effect on ROS production” value was “significant down-regulation of ROS production”. The “Decrease of NO level in comparison with LPS-treated control” value in data set [5] is on record as 24.1 ± 0.7%.
Consider `CC(=O)O[C@@]12CO[C@@H]1C[C@H](O)[C@@]1(C)C(=O)[C@H](O)C3=C(C)[C@@H](OC(=O)[C@H](O)[C@@H](NC(=O)OC(C)(C)C)c4ccccc4)C[C@@](O)([C@@H](OC(=O)c4ccccc4)[C@H]21)C3(C)C` [Docetaxel, reference compound], for which the IC50 in data set [1] (MTT assay, positive control) was found to be 0.00278 ± 0.00107 µM; in data set [3] (positive control), 0.0847 ± 0.0206 µM.
